# Biological target: Adenosine kinase (Rattus norvegicus, UniProt Q64640)
# Experiment: In vitro inhibition of Adenosine kinase of rat brain cytosol.
# Adenosine kinase, sequence (Q64640 whole entry): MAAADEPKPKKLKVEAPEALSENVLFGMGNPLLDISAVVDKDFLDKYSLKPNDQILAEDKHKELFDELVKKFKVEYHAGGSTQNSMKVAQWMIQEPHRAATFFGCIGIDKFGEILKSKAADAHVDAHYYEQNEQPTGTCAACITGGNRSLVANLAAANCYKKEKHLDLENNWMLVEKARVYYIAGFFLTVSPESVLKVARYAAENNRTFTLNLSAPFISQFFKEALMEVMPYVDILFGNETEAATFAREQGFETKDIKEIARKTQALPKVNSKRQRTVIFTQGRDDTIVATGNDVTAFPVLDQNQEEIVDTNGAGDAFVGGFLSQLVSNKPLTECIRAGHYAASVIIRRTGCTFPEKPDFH
row,Structure (SMILES),IC50 [µM]
1,COC(=O)c1c(N)ncnc1N[C@@H]1O[C@H](CO)[C@@H](O)[C@H]1O,10
2,COC(=O)c1c(N)ncnc1N[C@@H]1O[C@H](C)[C@@H](O)[C@H]1O,6.1
3,NC[C@H]1O[C@@H](Nc2ncnc(N)c2[N+](=O)[O-])[C@H](O)[C@@H]1O,0.035
4,Nc1ncnc(N[C@@H]2O[C@H](CO)[C@@H](O)[C@H]2O)c1C1=NCCO1,4
5,O=[N+]([O-])c1c(Nc2ccccc2)ncnc1N[C@@H]1O[C@H](CO)[C@@H](O)[C@H]1O,> 10
6,Nc1ncnc(N[C@@H]2O[C@H](CO)[C@@H](O)[C@H]2O)c1C(=O)NCCO,> 10
7,Nc1ncnc(N[C@@H]2O[C@H](CO)[C@@H](O)[C@H]2O)c1[S+]([O-])c1ccccc1 (some centres undefined),> 10
8,COC(=O)c1c(N)ncnc1N[C@@H]1O[C@H](CN)[C@@H](O)[C@H]1O,0.002
9,Nc1ncnc(N[C@@H]2O[C@H](CO)[C@@H](O)[C@H]2O)c1S(=O)(=O)c1ccccc1,> 10
10,COC(=O)c1cncnc1N[C@@H]1O[C@H](CN)[C@@H](O)[C@H]1O,0.004
11,COC(=O)c1cncnc1N[C@@H]1O[C@H](CO)[C@@H](O)[C@H]1O,0.6
12,C[C@H]1O[C@@H](Nc2ncnc(N)c2[N+](=O)[O-])[C@H](O)[C@@H]1O,4
13,COC(=O)c1c(Cl)ncnc1N[C@@H]1O[C@H](CO)[C@@H](O)[C@H]1O,> 10
14,Nc1ncnc(N[C@@H]2O[C@H](CBr)[C@@H](O)[C@H]2O)c1[N+](=O)[O-],> 10

# Reference: ChEMBL document CHEMBL1133950, “Synthesis and biological evaluation of clitocine analogues as adenosine kinase inhibitors” (Bioorg Med Chem Lett, 2001)
